Conditions: Liquid, Vibrating tube method

CCCCC(=O)OCC(COC(=O)CCCC)(COC(=O)CCCC)COC(=O)CCCC [pentaerythritol tetrapentanoate]
Conditions	mass density [kg/m3]
303.16 K, 794.63 kPa	1011.4
303.16 K, 4758.7 kPa	1013.9
303.16 K, 10737 kPa	1017.8
303.16 K, 10776 kPa	1017.7
303.16 K, 19666 kPa	1023
303.16 K, 25722 kPa	1026.7
303.16 K, 33332 kPa	1030.7
303.16 K, 33572 kPa	1030.8
303.16 K, 34311 kPa	1031.2
303.16 K, 34317 kPa	1031.3
303.16 K, 34322 kPa	1031.4
303.16 K, 34329 kPa	1031.2
303.16 K, 34349 kPa	1031.2
323.14 K, 736.7 kPa	995.1
323.14 K, 775.7 kPa	995.1
323.14 K, 800.8 kPa	995.2
323.14 K, 1023.7 kPa	995.3
323.14 K, 1214.2 kPa	995.6
323.14 K, 1242.9 kPa	995.4
323.14 K, 1267.4 kPa	995.5
323.14 K, 1292.7 kPa	995.4
323.14 K, 1352.1 kPa	995.6
323.14 K, 1554.7 kPa	995.8
323.14 K, 1591.2 kPa	995.7
323.14 K, 1625.4 kPa	995.6
323.14 K, 1652.3 kPa	995.8
323.14 K, 1677.1 kPa	995.8
323.14 K, 1847.7 kPa	995.8
323.14 K, 1899.2 kPa	995.8
323.14 K, 1926.8 kPa	996
323.14 K, 1959.1 kPa	996
323.14 K, 1986.5 kPa	996.1
323.14 K, 2181.7 kPa	996.1
323.14 K, 2215.2 kPa	996.1
323.14 K, 2249 kPa	996.2
323.14 K, 2284.1 kPa	996.3
323.14 K, 2935.8 kPa	996.6
323.14 K, 2965.1 kPa	996.7
323.14 K, 3225.9 kPa	996.8
323.14 K, 3237 kPa	996.9
323.14 K, 3248.4 kPa	996.9
323.14 K, 3385 kPa	996.9
323.14 K, 7926.5 kPa	1000.3
323.14 K, 7971.9 kPa	1000.2
323.14 K, 9459.5 kPa	1001.1
323.14 K, 9766.4 kPa	1001.5
323.14 K, 9799.5 kPa	1001.4
323.14 K, 9832.9 kPa	1001.5
323.14 K, 9906.9 kPa	1001.6
323.14 K, 9941.6 kPa	1001.6
323.14 K, 10052 kPa	1001.6
323.14 K, 10094 kPa	1001.7
323.14 K, 10244 kPa	1001.9
323.14 K, 11507 kPa	1002.6
323.14 K, 12708 kPa	1003.4
323.14 K, 13903 kPa	1004.3
323.14 K, 14014 kPa	1004.2
323.14 K, 14206 kPa	1004.4
323.14 K, 14241 kPa	1004.3
323.14 K, 19359 kPa	1007.7
323.14 K, 19418 kPa	1007.7
323.14 K, 19454 kPa	1007.7
323.14 K, 19485 kPa	1007.9
323.14 K, 28758 kPa	1013.5
323.14 K, 28848 kPa	1013.6
323.14 K, 28889 kPa	1013.5
323.14 K, 28930 kPa	1013.6
323.14 K, 29171 kPa	1013.8
323.14 K, 29205 kPa	1013.9
323.14 K, 29234 kPa	1013.8
323.14 K, 29268 kPa	1014
323.14 K, 29296 kPa	1013.9
323.15 K, 106.09 kPa	994.8
323.15 K, 106.1 kPa	994.7
323.15 K, 106.26 kPa	994.6
323.15 K, 106.44 kPa	994.7
323.15 K, 107.13 kPa	994.6
323.15 K, 108 kPa	994.6
323.15 K, 108.53 kPa	994.7
323.15 K, 110.43 kPa	994.6
323.15 K, 112.87 kPa	994.7
323.15 K, 115.82 kPa	994.7
323.15 K, 118.77 kPa	994.7
323.15 K, 121.05 kPa	994.6
323.15 K, 124.52 kPa	994.7
323.15 K, 129.04 kPa	994.6
323.15 K, 133.91 kPa	994.8
323.15 K, 140.34 kPa	994.7
323.15 K, 147.99 kPa	994.8
323.15 K, 159.99 kPa	994.7
323.15 K, 173.53 kPa	994.6
323.15 K, 190.4 kPa	994.6
323.15 K, 218.21 kPa	994.8
323.15 K, 249.16 kPa	994.8
323.15 K, 296.4 kPa	994.7
323.15 K, 338.3 kPa	994.8
323.15 K, 358.5 kPa	994.8
323.15 K, 373.8 kPa	994.9
323.15 K, 387.5 kPa	994.7
323.15 K, 401.6 kPa	994.8
323.15 K, 416.9 kPa	994.9
323.15 K, 429 kPa	995
323.15 K, 441.9 kPa	995
323.15 K, 455.3 kPa	995
323.15 K, 472.5 kPa	994.9
323.15 K, 488.1 kPa	994.9
323.15 K, 504.6 kPa	995
323.15 K, 525.8 kPa	995
323.15 K, 543.7 kPa	995
323.15 K, 564 kPa	995
323.15 K, 582.3 kPa	995
323.15 K, 601.7 kPa	995
323.15 K, 627.6 kPa	995.1
323.15 K, 645.4 kPa	995.1
323.15 K, 665.2 kPa	995.1
323.15 K, 681.1 kPa	995.1
323.15 K, 697.1 kPa	995
323.15 K, 718 kPa	995.2
323.15 K, 755.5 kPa	995
323.15 K, 823.3 kPa	995.1
323.15 K, 846.7 kPa	995.1
323.15 K, 871.2 kPa	995.4
323.15 K, 903.5 kPa	995.2
323.15 K, 930.1 kPa	995.3
323.15 K, 958.1 kPa	995.3
323.15 K, 984.8 kPa	995.4
323.15 K, 1006.3 kPa	995.3
323.15 K, 1041.8 kPa	995.4
323.15 K, 1060 kPa	995.3
323.15 K, 1082.2 kPa	995.4
323.15 K, 1101.7 kPa	995.3
323.15 K, 1121.7 kPa	995.4
323.15 K, 1146.9 kPa	995.5
323.15 K, 1168.2 kPa	995.4
323.15 K, 1191 kPa	995.4
323.15 K, 1319.1 kPa	995.2
323.15 K, 1380.2 kPa	995.5
323.15 K, 1416.2 kPa	995.6
323.15 K, 1447.4 kPa	995.6
323.15 K, 1479.7 kPa	995.8
323.15 K, 1512.7 kPa	995.6
323.15 K, 1698.1 kPa	995.8
323.15 K, 1720.3 kPa	995.8
323.15 K, 1747.2 kPa	995.8
323.15 K, 1770.3 kPa	995.8
323.15 K, 1793.7 kPa	995.8
323.15 K, 1822.9 kPa	995.9
323.15 K, 1873.2 kPa	995.9
323.15 K, 2015.2 kPa	996.1
323.15 K, 2044.7 kPa	996.1
323.15 K, 2080.6 kPa	996
323.15 K, 2111.5 kPa	996.1
323.15 K, 2143.5 kPa	996.3
323.15 K, 2327.6 kPa	996.2
323.15 K, 2364.9 kPa	996.1
323.15 K, 2402.4 kPa	996.3
323.15 K, 2448.3 kPa	996.3
323.15 K, 2487.7 kPa	996.4
323.15 K, 2528.3 kPa	996.4
323.15 K, 2578.1 kPa	996.3

From the NIST ThermoML archive (doi:10.1021/je060271a)
